Results as given in article PMC9860980, “Pharmacokinetics and Pharmacodynamics (PK/PD) of Corallopyronin A against Methicillin-Resistant Staphylococcus aureus” (Pharmaceutics, 2022).
Where two headings read alike, the source gives them in different places.

Assay: Pharmacokinetics of CorA in plasma of CD-1 mice
Type: in vivo
Details: for Tmax / CL/F / Cmax / MRT / half-life / Vd/F / AUC0-t: CD-1 mice; for Vd/F: read-out: Vz/F_obs
Procedure: For pharmacokinetic (PK) experiments, 6–8-week-old outbred female CD-1 mice (Charles River, Germany) were used. CorA was dissolved in PEG400/phosphate-buffered saline (PBS) (80:20 (v/v)). CorA was administered once daily at 60 mg/kg intraperitoneally (IP), 100 mg/kg IP, 100 mg/kg subcutaneously (SC) and 100 mg/kg perorally (PO). Moreover, CorA was administered at 30 mg/kg IP twice a day (BID) (administration time points t = 0 and 6 h after first dose). Animals (n = 3 per time point) receiving either 60 mg/kg IP or 100 mg/kg IP were euthanized at 10, 15, 30, 60 and 180 min after administration. Animals (n = 3 per time point) receiving 30 mg/kg IP BID were euthanized at 0.167, 0.25, 0.5, 1, 3, 5.75, 6.167, 6.25, 6.5, 7 and 9 h after first administration. Animals (n = 3 per time point) receiving 100 mg/kg SC or 100 mg/kg PO were euthanized at 0.25, 1, 2, 4 and 8 h after administration. At every time point blood was removed from the heart, collected into tubes coated with 0.5 M ethylenediaminetetraacetic acid (EDTA), immediately spun down at 15,870× g for 10 min at 4 °C and the resultant plasma transferred into a new tube. Furthermore, at every time point heart, lung, brain, liver, spleen, kidneys, and thigh muscles were removed and frozen in liquid nitrogen. For animals receiving 100 mg/kg PO also rectum (without feces), pharynx, skin, vaginal tract, subcutaneous fat tissue, visceral fat tissue and tibiae were removed and frozen in liquid nitrogen. Before removing the vaginal tract, a vaginal flush was performed.
CorA plasma concentrations were quantified by HPLC-DAD with an Alliance e2695 separation module and a 2998 PDA detector (Waters, Eschborn, Germany). For the analysis, blood samples were centrifuged for 10 min at 4 °C and 3220× g. The generated plasma (20 µL) was mixed 1:3 with ice-cold acetonitrile, vortexed for 10 s and centrifuged for 25 min at 4 °C and 11,000× g. The supernatant was transferred into a HPLC vial and a sample volume of 5 µL was injected and quantified at a wavelength of 300 nm. A Waters XBridge® Shield RP18 column (3.5 μm, 2.1 × 100 mm, 130 A) was used at 30 °C. Two solvent gradients comprising mobile phase A (acetonitrile/water 5/95 with 5 mM ammonium acetate and 40 μL acetic acid per liter) and mobile phase B (acetonitrile/water 95/5 with 5 mM ammonium acetate and 40 μL acetic acid per liter) with a gradient from 70%A/30%B to 20%A/80%B, stepwise within 30 min and a flow rate of 0.3 mL/min were used. Data were analyzed by Empower 3 software and quantified using an external reference standard. No major matrix effects were seen when mixing ACN containing CorA with plasma.
Caffeine was used as an internal standard.

[1] = female, mouse, plasma, 30 mg/kg IP (BID), mean ± SD
[2] = female, mouse, plasma, 60 mg/kg IP, mean ± SD
[3] = female, mouse, plasma, 100 mg/kg IP, mean ± SD
[4] = female, mouse, plasma, 100 mg/kg PO

For C/C=C/C/C=C(\C)C(O)CC/C(C)=C/C=C(\C)C(=O)c1c(O)cc([C@H](C)CC/C=C/NC(=O)OC)oc1=O (some centres unmarked) [CorA, Corallopyronin A], the “time CorA was found in plasma after dosing” value (100 mg/kg PO) was “up to 8 h”, the “exposure in plasma lower compared to the same dose administered IP or SC” value (100 mg/kg PO vs 100 mg/kg IP or SC) was 3- to 4 fold and the Tmax (female, CD-1, mouse, plasma, ip, 30 mg/kg, 30 mg/kg IP (BID), mean ± SD) was 0.19 h. The Tmax (female, CD-1, mouse, plasma, ip, 60 mg/kg, 60 mg/kg IP, mean ± SD) was 0.19 h, the Tmax (female, CD-1, mouse, plasma, ip, 100 mg/kg, 100 mg/kg IP, mean ± SD) was 0.19 h and the Tmax (female, CD-1, mouse, plasma, po, 100 mg/kg, 100 mg/kg PO) was 0.5 ± 0.4 h. The Tmax (female, CD-1, mouse, plasma, sc, 100 mg/kg, 100 mg/kg SC, mean ± SD) was 3.33 ± 1.2 h, the concentration at 8 h (female, CD-1, mouse, plasma, subcutaneous, 100 mg/kg SC, 8 h after dosing) was greater than 10 µg/mL and the CL/F [1] was 0.89 mL/min/kg. The Cmax [1] was 194 ± 15.6 µg/mL, the MRT [1] was 3.61 ± 0.6 h and the half-life [1] was 2.33 ± 0.3 h. It also gave a Vd/F [1] of 0.18 L/kg, a CL/F [2] of 1.8 mL/min/kg and a Cmax [2] of 416 ± 39.1 µg/mL. The MRT [2] was 1.55 ± 0.2 h, the half-life [2] was 1.1 ± 0.2 h and the Vd/F [2] was 0.17 L/kg. For the same compound, the CL/F [3] was 3.43 ± 0.4 mL/min/kg, the Cmax [3] was 349 ± 12.4 µg/mL and the MRT [3] was 2.51 ± 1 h. The half-life [3] was 1.87 ± 0.8 h, the Vd/F [3] was 0.54 ± 0.2 L/kg and the CL/F [4] was 16.4 ± 4 mL/min/kg. The Cmax [4] was 89.8 ± 43.8 µg/mL, the MRT [4] was 3.13 ± 0.2 h and the half-life [4] was 2.88 ± 0.6 h. For the same compound, the AUC0-t (female, mouse, plasma, 100 mg/kg PO, read-out: AUC 0-t) was 94 ± 27.1 µg·h/mL, the Vd/F [4] was 4.09 ± 1.3 L/kg and the Cmax (female, mouse, plasma, 100 mg/kg SC, mean ± SD) was 107 ± 59.2 µg/mL. The AUC0-t (plasma, 30 mg/kg IP (BID), mean ± SD) was 303.88 ± 21.9 µg·h/mL, the AUC0-t (plasma, 60 mg/kg IP, mean ± SD) was 463.87 ± 18.8 µg·h/mL and the AUC0-t (plasma, 100 mg/kg IP, mean ± SD) was 339.53 ± 28.4 µg·h/mL. For the same compound, the “Cmax lower compared to the same dose administered IP” value (plasma, 100 mg/kg PO vs 100 mg/kg IP) was 3- to 4 fold and the AUC0-t (plasma, 100 mg/kg SC, mean ± SD) was 459.32 ± 238.2 µg·h/mL.
